Marks after values point to notes of the source that are not given here.
How the values were obtained:
[1] = test system: endogenous dopamine release in the human brain; test: [^11C]PHNO PET of endogenous dopamine release after d-AMPH challenge; type: in vivo; conditions: for ΔΔBPND Mean (SD), Ca / ΔΔBPND Mean (SD), GP / ΔΔBPND Mean (SD), Pu / ΔΔBPND Mean (SD), SN / ΔΔBPND Mean (SD), VSt: attenuation of d-AMPH effect
Description: A T1-weighted magnetic resonance imaging (MRI) scan of the brain, performed at screening, was used to obtain anatomical information required for PET data analysis. Each subject underwent three [^11C]PHNO PET scans, one at baseline, the second approximately 3 h after a single oral dose of dex-amphetamine (d-AMPH, 0.5 mg/kg), and the third approximately 5 h after a single oral dose of Compound (I) (20 or 40 mg) and 3 h after an oral dose of dex-amphetamine (d-APMH) (0.5 mg/kg) (FIG. 2).
Subjects were positioned in the PET scanner, after the insertion of a venous cannula in an antecubital or forearm vein. Soft padding and head restraints were used to minimize head movement during data acquisition. All dynamic [^11C]PHNO PET scans were acquired on Siemens Biograph 6 PET/CT scanners (Hi-Rez (PET/CT1) or a TruePoint with TrueV, Siemens Healthcare, Erlangen, Germany). All scans for a particular subject were acquired on the same scanner. A low-dose computed tomography (CT) scan was performed immediately before each PET study to estimate signal attenuation. Following an intravenous bolus injection of [^11C]PHNO, dynamic emission data were acquired for 90 min in 26 frames of increasing duration. The dynamic images were reconstructed using Fourier rebinning and a 2D filtered discrete inverse Fourier transform algorithm with 5 mm isotropic Gaussian filter on a 128×128 matrix with 2.6 zoom giving 2 mm isotropic voxels. Appropriate corrections were applied for attenuation, randoms, and scatter.
The primary set of ROIs defined were the ventral striatum (VSt), putamen (Pu) and cerebellum. […] The cerebellum was used as a reference region. An additional set of ROIs including the caudate nucleus (Ca), globus pallidus (GP) and substantia nigra (SN) was also evaluated.
Regional TAC data extracted from the PET images were fitted using a basis function implementation of the SRTM (Gunn et al., 1997) to estimate the binding potential relative to the non-displaceable component (BPND) for each PET scan, as a measure of specific binding (Innis et al., 2007).
Reduction in [^11C]-PHNO specific binding following a d-AMPH challenge (ΔBPND^APMH) was quantified as percent change in postdose BPND (BPND^AMPH) from baseline BPND (BPND^BL):
Reduction in [^11C]-PHNO specific binding following a combination of Compound (I) and d-AMPH (ΔBPND^APMH+C1) was quantified as percent change in postdose BPND (BPND^AMPH+C1) from baseline BPND (BPND^BL):
The effect of Compound (I) (ΔΔBPND) was quantified as the percent change BPND in ΔBPND^APMH+C1 compared to ΔBPND^APMH:
All statistical comparisons were conducted using Student's t-tests for each ROI, using paired tests for within subject comparisons, and unpaired tests for between group comparisons.

cerebral blood flow = test: Average global cerebral blood flow (pCASL MRI); type: in vivo, human
Excerpt: Whole brain maps of regional cerebral blood flow (CBF) were obtained using an ASL methodology previously reported (Hawkins et al., 2018; Dai et al., 2008). Briefly, images were acquired using a pseudo-continuous Arterial Spin Labelling sequence (pCASL) with a multi-shot, segmented 3D stack of axial spirals (8-arms) readout with a resultant spatial resolution of 2×2×3 mm. Three control-label pairs were used to derive a perfusion weighted difference image. The labelling RF pulse had duration of 1.5 s and a post-labelling delay of 1.5 s. The sequence included background suppression for optimum reduction of the static tissue signal. A Proton Density image was acquired in 48 s using the same acquisition parameters to compute the CBF map in standard physiological units (mL blood/100 g tissue/min). Two runs were acquired per visit and averaged following preprocessing.
The T2-weighted image was co-registered to the T1-weighted image prior to creation of the DARTEL template, and each session's Proton Density image was then co-registered to the T2-weighted image. The parameters for this transformation were then applied to the CBF maps, and the DARTEL flow field applied to normalize to CBF maps to MNI space, before smoothing with a 6 mm FWHM kernel.
Average global cerebral blood flow (CBF) was extracting using an SPM MNI whole brain mask in MarsBar, and was analyzed at each time point with a mixed two-way ANOVA (treatment (placebo/drug) within subject factor, dose level (40 mg/160 mg) between-subject factor) (FIG. 4).

For `C[C@H](NC(=O)Cn1nnc2ccccc2c1=O)c1ccc(OC(F)(F)F)cc1` [Compound (I), (S)-2-(4-oxobenzo[d][1,2,3]triazin-3(4H)-yl)-N-(1-(4-(trifluoromethoxy)phenyl)ethyl)acetamide], the “dose effect on ΔΔBPND, 40 mg group vs 20 mg group” value ([1]; Pu and GP, one-tailed t-tests, p<0.01) was “significantly greater than that in the 20 mg group”, the “effect of pre-treatment on the d-AMPH challenge” value ([1]; all ROI, significant in Pu, VSt and SN) was “attenuated the effect of the d-AMPH challenge in all ROI examined” and the “ΔΔBPND Mean (SD), Ca” value ([1]; 20 mg single oral dose) was −4.2 (59.2) %. The “ΔΔBPND Mean (SD), GP” value ([1]; 20 mg single oral dose) was −3.2 (19.7) %, the “ΔΔBPND Mean (SD), Pu” value ([1]; 20 mg single oral dose) was 16.4 (11.3)* % and the “ΔΔBPND Mean (SD), SN” value ([1]; 20 mg single oral dose) was 25.6 (49.7) %. The “ΔΔBPND Mean (SD), VSt” value ([1]; 20 mg single oral dose) was 13.8 (14.1)* %, the “ΔΔBPND Mean (SD), Ca” value ([1]; 40 mg single oral dose) was 24.8 (26.7) % and the “ΔΔBPND Mean (SD), GP” value ([1]; 40 mg single oral dose) was 66.6 (32.4) %. The “ΔΔBPND Mean (SD), Pu” value ([1]; 40 mg single oral dose) was 36.4 (7.7) * %, the “ΔΔBPND Mean (SD), SN” value ([1]; 40 mg single oral dose) was 40.8 (58.6) % and the “ΔΔBPND Mean (SD), VSt” value ([1]; 40 mg single oral dose) was 22.6 (20.3) %. For the same molecule, the “ΔΔBPND Mean (SD), Ca” value ([1]; all subjects (20 or 40 mg)) was 10.3 (45.9) %, the “ΔΔBPND Mean (SD), GP” value ([1]; all subjects (20 or 40 mg)) was 31.7 (44.6) % and the “ΔΔBPND Mean (SD), Pu” value ([1]; all subjects (20 or 40 mg)) was 26.4 (13.9)* %. The “ΔΔBPND Mean (SD), SN” value ([1]; all subjects (20 or 40 mg)) was 33.2 (51.8)* %, the “ΔΔBPND Mean (SD), VSt” value ([1]; all subjects (20 or 40 mg)) was 18.2 (17.1)* % and the blood-brain barrier crossing ([1]; healthy human volunteers) was “readily crossed the blood-brain barrier”. For the same molecule, the “modulation of dopamine release” value ([1]; healthy human volunteers, 20 or 40 mg single oral dose) was “dose-dependent modulation of dopamine release”, the “effect of treatment on average global CBF (mixed two-way ANOVA)” value (cerebral blood flow; Day 1, 40 mg/160 mg vs placebo, F(1, 18)=5.978, p=0.025) was “significant effect of treatment” and the “effects on cerebral blood flow compared to placebo” value (cerebral blood flow; Day 1 and Day 14) was “widespread and robust reductions at Day 1 followed by increases at Day 14”. The “effect of treatment on average global CBF (mixed two-way ANOVA)” value (cerebral blood flow; Day 14, 40 mg/160 mg vs placebo, F(1, 15)=3.558, p=0.079) was “no significant effect of treatment”.

Reference: patent US20230310441A1, “TREATMENT FOR SCHIZOPHRENIA” (TAKEDA PHARMACEUTICAL COMPANY, priority 2020, published 2023)
